The source of these data is ChEMBL document CHEMBL5230136, “A review: Biologically active 3,4-heterocycle-fused coumarins” (Eur J Med Chem, 2021).

Values after ≈ are worked out from the molar mass of the structure shown. Values joined by “and” are separate entries in the source; they are usually repeats but may differ in a detail not shown here. Equal values may be shown once. A value given as a limit tells only on which side of the number the result lay.

In test [1] the test system is HCT-116/VM46. Description: cells. The conditions noted are these: Homo sapiens.
Test [2] has as its system L1210. Description: Cytotoxicity against […] cells assessed as reversal of multi drug resistance at 1 uM. It counts as functional, cell-based. The conditions noted are these: Mus musculus.
In test [3] the test system is HCT-116/VM46. Kind of test: Anticancer activity against Multi drug resistant human HCT-116/VM46 cells assessed as inhibition of cell growth. Type of test: functional, cell-based.
The test system of test [4] is MCF7. Kind of test: Anticancer activity against human MCF7 cells assessed as reduction in cell viability. Type of test: functional, cell-based.
The subject of test [5] is Staphylococcus aureus. Description: Antibacterial activity against Staphylococcus aureus ATCC 29213 assessed as reduction in bacterial growth. Type of test: functional.
In test [6] the test system is Staphylococcus epidermidis. Description: Antibacterial activity against Staphylococcus epidermidis assessed as reduction in bacterial growth. Type of test: functional.
The test system of test [7] is Escherichia coli. Kind of test: Antibacterial activity against Escherichia coli assessed as bacterial growth inhibition. Type of test: functional.
For test [8], the system named is Bacillus subtilis. Description: Antibacterial activity against Bacillus subtilis assessed as reduction in bacterial growth. Type of test: functional.
The test system of test [9] is MCF7. Kind of test: Antiproliferative activity against human MCF7 cells assessed as inhibition of cell proliferation measured after 96 hrs by SRB assay. It counts as functional, cell-based. The conditions noted are these: MCF7, 96 h. For orientation: In SRB staining, fixed cells bind dye roughly in proportion to their protein.
The subject of test [10] is LS180. Description: Anticancer activity against human LS180 assessed as inhibition in cell viability. It counts as functional, cell-based.
The subject of test [11] is Geotrichum candidum. Description: Antimicrobial activity against Geotrichum candidum assessed as zone of inhibition at 50 uM. The conditions noted are these: read-out: IZ. Type of test: functional.
The test system of test [12] is Trichophyton rubrum. Description: Antifungal activity against Trichophyton rubrum assessed as zone of inhibition at 20 mg/ml. Type of test: functional. The conditions noted are these: read-out: IZ.
The subject of test [13] is Serratia marcescens. Kind of test: Antibacterial activity against Serratia marcescens assessed as zone of inhibition at 20 mg/ml. Type of test: functional. The conditions noted are these: read-out: IZ.
For test [14], the system named is Candida albicans. Kind of test: Antifungal activity against Candida albicans assessed as zone of inhibition at 20 mg/ml. Type of test: functional. The conditions noted are these: read-out: IZ.
For test [15], the system named is Geotrichum candidum. Kind of test: Antifungal activity against Geotrichum candidum assessed as zone of inhibition at 20 mg/ml. It counts as functional. The conditions noted are these: read-out: IZ.
The subject of test [16] is Micrococcus luteus. Kind of test: Antibacterial activity against Micrococcus luteus assessed as zone of inhibition at 20 mg/ml. Type of test: functional. The conditions noted are these: read-out: IZ.
Test [17] concerns Escherichia coli. Description: Antibacterial activity against Escherichia coli assessed as zone of inhibition at 20 mg/ml. It counts as functional. The conditions noted are these: read-out: IZ.
Test [18] deals with Pseudomonas aeruginosa. Description: Antibacterial activity against Pseudomonas aeruginosa assessed as zone of inhibition at 20 mg/ml. The conditions noted are these: read-out: IZ. Type of test: functional.
In test [19] the test system is Staphylococcus aureus. Description: Antibacterial activity against Staphylococcus aureus assessed as zone of inhibition at 20 mg/ml. Type of test: functional. The conditions noted are these: read-out: IZ.
Test [20] has as its system Aspergillus flavus. Kind of test: Antifungal activity against Aspergillus flavus assessed as zone of inhibition at 20 mg/ml. It counts as functional. The conditions noted are these: read-out: IZ.
The test system of test [21] is Bacillus cereus. Kind of test: Antibacterial activity against Bacillus cereus assessed as zone of inhibition at 20 mg/ml. The conditions noted are these: read-out: IZ. Type of test: functional.
In test [22] the test system is Fusarium oxysporum. Description: Antifungal activity against Fusarium oxysporum assessed as zone of inhibition at 20 mg/ml. It counts as functional. The conditions noted are these: read-out: IZ.
Test [23] has as its system Scopulariopsis. Kind of test: Antifungal activity against Scopulariopsis assessed as zone of inhibition at 20 mg/ml. Type of test: functional. The conditions noted are these: read-out: IZ.
The test system of test [24] is Botrytis cinerea. Kind of test: Antifungal activity against Botrytis cinerea assessed as inhibition of fungal growth incubated for 24 hrs by standard broth dilution assay. It counts as functional, organism-based. (In broth dilution the organism is exposed to a series of concentrations in liquid medium.)
In test [25] the test system is Botrytis cinerea. Kind of test: Antifungal activity against Botrytis cinerea. It counts as functional, organism-based.
For test [26], the system named is Colletotrichum camelliae. Description: Antifungal activity against Colletotrichum camelliae. It counts as functional, organism-based.
Test [27] relates to Raji. Description: Antiproliferative activity against human Raji cells assessed as reduction in cell growth incubated for 72 hrs by MTT assay. Type of test: functional, cell-based.
Test [28] deals with Staphylococcus aureus. Kind of test: Antibacterial activity against Staphylococcus aureus assessed as zone of inhibition. Type of test: functional.
For test [29], the system named is Aspergillus ochraceus. Description: Antifungal activity against Aspergillus ochraceus assessed as zone of inhibition. It counts as functional.
The subject of test [30] is Serratia marcescens. Kind of test: Antibacterial activity against Serratia marcescens assessed as zone of inhibition. Type of test: functional.
The test system of test [31] is Aspergillus ochraceus. Description: Antifungal activity against Aspergillus ochraceus assessed as zone of inhibition at 20 ug/ml. Type of test: functional. The conditions noted are these: read-out: IZ.
The subject of test [32] is Proteus mirabilis. Kind of test: Antibacterial activity against Proteus mirabilis assessed as zone of inhibition. It counts as functional.
In test [33] the test system is Bacillus cereus. Description: Antibacterial activity against Bacillus cereus assessed as zone of inhibition. Type of test: functional.
In test [34] the test system is Penicillium chrysogenum. Description: Antifungal activity against Penicillium chrysogenum assessed as zone of inhibition. It counts as functional.
Test [35] can be described thus: Antioxidant activity assessed as DPPH radical scavenging activity. Type of test: functional.
In test [36] the test system is MES-SA. Kind of test: Cytotoxicity against human MES-SA cells assessed as reduction in cell viability incubated for 72 hrs by MTT assay. It counts as functional, cell-based. (Tetrazolium dyes change colour on reduction, which living cells bring about.)
The nature of test [37]: Induction of angiogenesis in human HUVEC cells. Type of test: functional.
The test system of test [38] is Plasmodium falciparum. Kind of test: Antimalarial activity against Plasmodium falciparum by LDH assay. Type of test: functional, organism-based.
Test [39] has as its system Plasmodium falciparum. Kind of test: Antimalarial activity against Plasmodium falciparum Dd2 by HRP2 assay. It counts as functional, organism-based.
Test [40] has as its system Bacillus cereus. Description: Antibacterial activity against Bacillus cereus assessed as reduction in microbial growth after 18 hrs by MTT based broth dilution method. It counts as functional, organism-based.
The nature of test [41]: Antiproliferative activity against human U87 cells assessed as reduction in cell viability by MTT assay. It counts as functional, cell-based, U-87MG ATCC. The conditions noted are these: U-87 MG.
For test [42], the system named is MCF7. Description: Anticancer activity against human MCF7 cells assessed as inhibition of cell proliferation measured after 48 hrs by MTT assay. It counts as functional, cell-based. The conditions noted are these: MCF7, 48 h.

By IC50 is commonly meant the concentration needed to halve the response being measured. By MIC is commonly meant the lowest concentration that inhibits growth of the organism. As usually defined, the EC50 is the midpoint of the concentration-response curve.

Regarding `COc1ccc(CCn2cc(-c3ccc(OC)c(OC)c3)c3c4cc(OC)c(OC)cc4oc(=O)c32)cc1OC`, the values for the IC50 in [1], in [2] and in test [3] were 40 µM, 50 µM and 40 µM, respectively.

For `Cc1c(-c2nnn[nH]2)c(=O)oc2c1c(=O)oc1ccccc12`, the IC50 in [4] was found to be 49 µM.

Take `CC1=Nc2[nH]n(-c3ccccc3)c(=O)c2C2c3cc(Cl)cc(Cl)c3OC(=O)C12` (stereo not drawn): the MIC was determined as 25 µM (≈ 10.4 µg/mL) in test [5], 6.3 µM (≈ 2.61 µg/mL) in [6], 6.3 µM (≈ 2.61 µg/mL) in test [7] and 6.3 µM (≈ 2.61 µg/mL) in test [8].

For `O=C1CCCC(=O)C1`, the IC50 in [9] was 100 µM; in test [10], > 100 µM.

On to `CCOC(=O)c1sc2c(c1NC(=O)CNc1ccc(S(N)(=O)=O)cc1)c(=O)oc1ccccc12`, for which the zone of inhibition at 50 µM in test [11] amounted to 10 mm. Also, the zone of inhibition at 20000 µg/mL was found to be 0 mm in [12]; 0 mm in [13]; 0 mm in [14]; 10 mm in test [15]; 0 mm in test [16]; 9 mm in [17]. In addition, the zone of inhibition at 20000 µg/mL in [18] is 0 mm; in test [19], 9 mm; in test [20], 0 mm; in [21], 0 mm; in [22], 0 mm; in [23], 0 mm.

For `Cc1oc2c(c1C)c(=O)oc1cc(OC(C)C)ccc12`, the EC50 in [24] was found to be 1.72 µM; in [25] it was 1.72 µg/mL (≈ 6.32 µM); in test [26] it was 6.02 µg/mL (≈ 22.1 µM).

With `COc1cccc(C2C3=C(CCCC3=O)Oc3c2c(=O)oc2ccccc32)c1` (stereo not drawn), the IC50 in test [27] was 73 µM.

`O=C1CN=C2C3=C(N=CN2N1)Oc1c(c(=O)oc2ccccc12)C3`: the “inhibition zone (IZ)” value is 20 mm in [28]; 20 mm in test [29]; 21 mm in test [30]; 22 mm in test [32]; 22 mm in [33]; 19 mm and 22 mm in test [34]. In [31], the zone of inhibition at 20 µg/mL is 22 mm.

Regarding `CN1CCN(Cc2[se]c3c(c2Br)c(=O)oc2ccccc23)CC1`, the IC50 in [35] is 62 µM; in [36], 9.4 µM. In addition, the Activity in [37] turned out to be 84%.

Regarding `CCN(CC)CCCC(C)Nc1cc2c(c(C)n1)c(=O)oc1ccccc12` (stereo not drawn), the IC50 in [38] and in [39] was 1.1 µM each time.

Regarding `N#CC1=C(N)Oc2c(c(=O)oc3ccccc23)C12C(=O)N(CCCCCCCCCCBr)c1ccccc12` (stereo not drawn), the IC50 in test [40] and in test [41] was 39 µM each time.

On to `O=c1oc2ccccc2c2[se]c(CN3CCOCC3)c(Nc3cccnc3)c12`, for which the IC50 in test [42] was 41 µM; in [35], 4 µM.
